The numbers were not newly measured in patent US9687466B2, “Use of dianhydrogalactitol and analogs and derivatives thereof to treat glioblastoma multiforme” (DELMAR PHARMACEUTICALS, INC., priority 0212, dated 2017), which cites them from elsewhere.

The conditions of the data set: cited from earlier work.

As for `O[C@H]([C@H](O)[C@@H](O)CBr)[C@H](O)CBr` [dibromodulcitol], the “absorption by the oral route” value is “rapid and fairly complete”.
